Consider 29 compounds from patent publication US8822447B2, “Indazole compounds useful as ketohexokinase inhibitors” (Janssen Pharmaceutica NV, priority 2010, dated 2014).

Counter-ions that a name gives are not always drawn.

KHK, sequence (P50053 whole entry): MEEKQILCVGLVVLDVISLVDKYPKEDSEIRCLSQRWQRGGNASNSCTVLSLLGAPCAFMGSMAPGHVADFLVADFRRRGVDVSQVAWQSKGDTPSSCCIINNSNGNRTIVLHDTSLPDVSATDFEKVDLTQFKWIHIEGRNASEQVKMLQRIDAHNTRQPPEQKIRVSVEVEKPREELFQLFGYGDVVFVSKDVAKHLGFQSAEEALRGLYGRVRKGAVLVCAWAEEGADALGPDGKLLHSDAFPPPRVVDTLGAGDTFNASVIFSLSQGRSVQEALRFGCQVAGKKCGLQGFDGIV

This assay concerns the target KHK (Homo sapiens (Human), UniProt P50053). Kind of assay: In Vitro KHK Enzyme Assay (HTMS).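 Also: primary screen measuring inhibition of KHK-catalysed conversion of D-fructose into fructose 1-phosphate.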 In kind it is biochemical. The following applies: 200 μM fructose, 100 μM ATP, 2 nM KHK, 60 min at 25° C.; Fructose-1-P detected by high throughput mass spectrometry.
Method: An enzymatic assay was developed to measure KHK-mediated conversion of D-fructose to Fructose-1-P (F-1-P) using High Throughput Mass Spectroscopy (HTMS) as a means of product detection. This assay served as a primary screen to evaluate the ability to inhibit KHK enzyme activity and it has been adapted to high throughput mass spectrometry (HTMS, BioTrove RapidFire™) format for higher throughput.
The compounds to be tested were dosed in 12-points concentration from 511 μM to 0.5 μM. […] The assay was carried out in 384-well plate format.
Compound `CSc1nn(-c2ccccc2)c2cc(NC(=O)C3CCCN3)ccc12` (centres unmarked) [Compound 13, N-(3-(Methylthio)-1-phenyl-1H-indazol-6-yl)pyrrolidine-2-carboxamide hydrochloride] came in with an IC50 of 260 nM.

Regarding `CSc1nn(-c2ccccc2)c2cc(C(O)C3CCNCC3)ccc12` (centres unmarked) [Compound 136, (3-Methylsulfanyl-1-phenyl-1H-indazol-6-yl)-piperidin-4-yl-methanol], the IC50 was greater than 2000 nM.

Take `CSc1nn(-c2ccccc2)c2cc(C(=O)C3CCNCC3)ccc12` [Compound 142, (3-Methylsulfanyl-1-phenyl-1H-indazol-6-yl)-piperidin-4-yl-methanone]: the IC50 is 670 nM.

With `Cc1nn(-c2ccccc2)c2cc(N3CCN(C4CCNC4)CC3)ccc12` (centres unmarked) [Compound 63, 3-Methyl-1-phenyl-6-(4-(pyrrolidin-3-yl)piperazin-1-yl)-1H-indazole hydrochloride], it took 3750 nM to reach half-maximal inhibition (IC50).

`CSc1nn(-c2ccc(N)cc2)c2cc(C(=O)NC3CCNCC3)ccc12` [Compound 111, 1-(4-Amino-phenyl)-3-methylsulfanyl-1H-indazole-6-carboxylic acid piperidin-4-ylamide] displayed an IC50 of 2610 nM.

For the compound `Cc1nn(-c2ccccc2)c2cc(N3CCC(N)C3)ccc12` (centres unmarked) [Compound 72, 1-(3-Methyl-1-phenyl-1H-indazol-6-yl)pyrrolidin-3-amine formic acid salt], the 50% inhibitory concentration (IC50) is 680 nM.

For `CSc1nn(-c2ccccc2)c2cc(N3CCN(CC4CCNC4)C3=O)ccc12` (centres unmarked) [Compound 27, 1-(3-(Methylthio)-1-phenyl-1H-indazol-6-yl)-3-(pyrrolidin-3-ylmethyl)imidazolidin-2-one hydrochloride], the IC50 amounted to 5170 nM.

In turn, `Cc1nn(-c2ccccc2)c2cc(N3CCN(C4CCNCC4)CC3)ccc12` [Compound 64, 3-Methyl-1-phenyl-6-(4-(piperidin-4-yl)piperazin-1-yl)-1H-indazole hydrochloride] gave an IC50 of 9060 nM.

In the case of `CSc1nn(-c2ccccc2)c2cc(C=CC3CCCN3)ccc12` (centres unmarked) [Compound 175, 3-Methylsulfanyl-1-phenyl-6-(2-pyrrolidin-2-yl-vinyl)-1H-indazole], the IC50 is 610 nM.

For the compound `CSc1nn(-c2ccccc2)c2cc(NC(=O)CC3CCCCN3)ccc12` (centres unmarked) [Compound 3, N-(3-(Methylthio)-1-phenyl-1H-indazol-6-yl)-2-(piperidin-2-yl)acetamide hydrochloride], it took 860 nM to reach half-maximal inhibition (IC50).

Regarding `CSc1nn(-c2ccccc2)c2cc(N3CCC(N4CCNCC4)C3)ccc12` (centres unmarked) [Compound 19, 3-(Methylthio)-1-phenyl-6-(3-(piperazin-1-yl)pyrrolidin-1-yl)-1H-indazole hydrochloride], it took 560 nM to reach half-maximal inhibition (IC50).

In turn, `CSc1nn(-c2ccccc2)c2cc(C=CC3CCCNC3)ccc12` (centres unmarked) [Compound 176, 3-Methylsulfanyl-1-phenyl-6-(2-piperidin-3-yl-vinyl)-1H-indazole] gave a concentration for half-maximal inhibition (IC50) of 790 nM.

`CSc1nn(-c2ccc(C)cc2)c2cc(C3=CCNCC3)ccc12` [Compound 184, 3-Methylsulfanyl-6-(1,2,3,6-tetrahydro-pyridin-4-yl)-1-p-tolyl-1H-indazole] displayed an IC50 of 40 nM.

On to `CSc1nn(-c2ccccc2)c2cc(NC(=O)CCN3CCNCC3)ccc12` [Compound 132, N-(3-Methylsulfanyl-1-phenyl-1H-indazol-6-yl)-3-piperazin-1-yl-propionamide], for which the concentration for half-maximal inhibition (IC50) is 380 nM.

As for `COc1nn(-c2ccccc2)c2cc(N3CCN(C4CCNCC4)C3=O)ccc12` [Compound 81, 1-(3-Methoxy-1-phenyl-1H-indazol-6-yl)-3-(piperidin-4-yl)imidazolidin-2-one hydrochloride], the IC50 amounted to 30000 nM.

On to `CCc1nn(-c2ccccc2)c2cc(NC(=O)c3cccc(C(=N)N)c3)ccc12` [Compound 40, 3-Carbamimidoyl-N-(3-ethyl-1-phenyl-1H-indazol-6-yl)benzamide acetate], for which half-maximal inhibition (IC50) required 680 nM.

The compound `CSc1nn(-c2ccccc2)c2cc(N3CCN(CC4CCCNC4)C3=O)ccc12` (centres unmarked) [Compound 28, 1-(3-(Methylthio)-1-phenyl-1H-indazol-6-yl)-3-(piperidin-3-ylmethyl)imidazolidin-2-one hydrochloride] showed an IC50 of 3040 nM.

Compound `CCc1nn(-c2ccccc2)c2cc(N3CCN(C4CNC4)CC3)ccc12` [Compound 44, 6-(4-(azetidin-3-yl)piperazin-1-yl)-3-ethyl-1-phenyl-1H-indazole hydrochloride] returned an IC50 of 2400 nM.

`CCc1nn(-c2ccccc2)c2cc(N3CCNCC3)ccc12` [Compound 42, 3-Ethyl-1-phenyl-6-(piperazin-1-yl)-1H-indazole] displayed an IC50 of 570 nM.

For `Cc1nn(-c2ccccc2)c2nc(C3CCN(C4CCNC4)CC3)nc(O)c12` (centres unmarked) [Compound 88, 3-Methyl-1-phenyl-6-(1-pyrrolidin-3-yl-piperidin-4-yl)-1H-pyrazolo[3,4-d]pyrimidin-4-ol hydrochloride], 1510 nM corresponded to half-maximal inhibition (IC50).

Take `CSc1nn(-c2ccccc2)c2cc(N3CCCNCC3)ccc12` [Compound 11, 6-(1,4-Diazepan-1-yl)-3-(methylthio)-1-phenyl-1H-indazole hydrochloride]: the IC50 was 540 nM.

`CSc1nn(-c2ccccc2)c2cc(C(=O)c3ccc4ncn(C)c4c3)ccc12` [Compound 171, (3-Methyl-3H-benzoimidazol-5-yl)-(3-methylsulfanyl-1-phenyl-1H-indazol-6-yl)-methanone] came in with an IC50 greater than 10000 nM.

Take `CCc1nn(-c2ccccc2)c2nc(C3CCN(C(=O)C4CCNCC4)CC3)nc(O)c12` [Compound 96, [4-(3-Ethyl-4-hydroxy-1-phenyl-1H-pyrazolo[3,4-d]pyrimidin-6-yl)-piperidin-1-yl]-piperidin-4-yl-methanone hydrochloride]: 30000 nM corresponded to half-maximal inhibition (IC50).

Take `CSc1nn(-c2ccc([N+](=O)[O-])cc2)c2cc(C3=CCN(C(=O)CN)CC3)ccc12` [Compound 144, 2-Amino-1-{4-[3-methylsulfanyl-1-(4-nitro-phenyl)-1H-indazol-6-yl]-3,6-dihydro-2H-pyridin-1-yl}-ethanone]: the IC50 was greater than 10000 nM.

`COc1nn(-c2ccccc2)c2cc(N3CC(N4CCNCC4)C3)ccc12` [Compound 73, 3-Methoxy-1-phenyl-6-(3-(piperazin-1-yl)azetidin-1-yl)-1H-indazole hydrochloride] returned an IC50 of 390 nM.

For the compound `COc1nn(-c2ccccc2)c2cc(N3CCN(c4ccncc4)CC3)ccc12` [Compound 77, 3-Methoxy-1-phenyl-6-(4-(pyridin-4-yl)piperazin-1-yl)-1H-indazole hydrochloride], 8100 nM corresponded to half-maximal inhibition (IC50).

As for `CCc1nn(-c2ccccc2)c2cc(N3CCNC(C)C3)ccc12` (centres unmarked) [Compound 56, 3-Ethyl-6-(3-methylpiperazin-1-yl)-1-phenyl-1H-indazole], half-maximal inhibition (IC50) required 860 nM.

Take `CSc1nn(-c2ccccc2)c2cc(N3CCN(C4CNC4)CC3)ccc12` [Compound 21, 6-(4-(Azetidin-3-yl)piperazin-1-yl)-3-(methylthio)-1-phenyl-1H-indazole hydrochloride]: the IC50 was determined as 2820 nM.

For the compound `CSc1nn(-c2ccccc2)c2cc(NCCC3CCNCC3)ccc12` [Compound 166, (3-Methylsulfanyl-1-phenyl-1H-indazol-6-yl)-(2-piperidin-4-yl-ethyl)-amine], it took 600 nM to reach half-maximal inhibition (IC50).
